Measurements taken from the Deep4Chem optical property database.
Values belong to the compound of their own block, whether it stands above or below them.

Experiment: photoluminescence quantum yield (fraction); solvent given as SMILES

photoluminescence quantum yield (in CCCCCCC): 0.1
SMILES: c1ccc2c3c(ccc2c1)-c1cc2ccccc2c2cccc-3c12

photoluminescence quantum yield (in CCO): 0.016 | photoluminescence quantum yield (in O): 0.022
SMILES: CN(C)c1ccc2c(-c3cc(N)ccc3C(=O)[O-])c3ccc(=[N+](C)C)cc-3oc2c1

photoluminescence quantum yield (in ClCCl): 0.29
SMILES: O=C(c1ccc2c3c(sc2c1)-c1ccccc1P3(=O)c1ccccc1)c1c(F)c(F)c(F)c(F)c1F (stereo not given)

photoluminescence quantum yield (in ClCCl): 0.191
SMILES: CCOC(=O)c1ccc(C2CC(c3cccc4ccccc34)=NN2c2ccc(F)cc2)cc1 (stereo not given)

photoluminescence quantum yield (in CC#N): 0.19 | photoluminescence quantum yield (in CCCCOCCCC): 0.21 | photoluminescence quantum yield (in CO): 0.21
SMILES: c1ccc(Nc2nc(Nc3ccccc3)nc(Nc3cc4ccc5cccc6ccc(c3)c4c56)n2)cc1

photoluminescence quantum yield (in ClCCl): 0.68
SMILES: COc1ccc(/C=C/c2nc(/C=C/c3ccc(N(C)C)cc3)cc(/C=C/c3ccc(N(c4ccccc4)c4ccccc4)cc3)n2)cc1

photoluminescence quantum yield (in C1CCCCC1): 1
SMILES: CCCC1(CCC)c2cc(-c3ccc(OC)cc3)ccc2-c2ccc(-c3ccc4c(c3)C(CCC)(CCC)c3cc(-c5ccc(OC)cc5)ccc3-4)cc21

photoluminescence quantum yield (in ClC(Cl)Cl): 0.38
SMILES: COc1ccc(C2=[N+]3C(=Nc4c(-c5ccccc5)c5c(n4[B-]3(F)F)-c3ccc(OC)cc3CC5)C(c3ccccc3)=C2)cc1

photoluminescence quantum yield (in CC#N): 0.57 | photoluminescence quantum yield (in CCOC(C)=O): 0.69 | photoluminescence quantum yield (in CN(C)C=O): 0.53 | photoluminescence quantum yield (in CS(C)=O): 0.51 | photoluminescence quantum yield (in c1ccccc1): 0.77
SMILES: CCOC(=O)CN(CC(=O)OCC)c1ccc(-c2cc(-c3cccnc3)nc(-c3cccnc3)c2)cc1

photoluminescence quantum yield (in ClC(Cl)Cl): 0.74
SMILES: CC(C)c1cccc(C(C)C)c1-n1c(=O)c2ccc3c4ccc5c(=O)n(-c6c(C(C)C)cccc6C(C)C)c(=O)c6cc7c(-c8ccccc8)nc8cc(c1=O)c2c3c8c7c4c56

photoluminescence quantum yield (in CCCO): 0.45
SMILES: CCOC(=O)c1ccc2c(c1)[nH]c1c3ccc(C(=O)OCC)cc3sc21

photoluminescence quantum yield (in ClCCl): 0.0038
SMILES: CC1=C(c2ccc(N(c3ccccc3)c3ccccc3)cc2)C(C)=[N+]2C1=C(c1c(-c3ccccn3)nc3ccccn13)c1c(C)cc(C)n1[B-]2(F)F

photoluminescence quantum yield (in C1CCOC1): 0.41 | photoluminescence quantum yield (in ClCCl): 0.82
SMILES: COc1ccc(C2=Cc3ccccc3P2(=O)c2ccccc2)cc1 (stereo not given)

photoluminescence quantum yield (in C1CCOC1): 0.03
SMILES: COc1ccc(C(=Cc2ccc(/C=C/c3ccc(C#N)cc3)cc2)c2ccc(OC)cc2)cc1

More lines, now with the values behind:

SMILES: c1ccc2nc3c(nc2c1)[nH]c1ccccc13
photoluminescence quantum yield (in C1COCCO1): 0.04 | photoluminescence quantum yield (in CC#N): 0.05 | photoluminescence quantum yield (in CCCCCCC): 0.02 | photoluminescence quantum yield (in CCO): 0.01

SMILES: CC1(C)CC[N+]2=c3c(cc4c(c31)Oc1cc3c(cc1C=4c1ccccc1C(=O)O)C(c1ccccc1C(=O)O)=c1cc4c5c(c1O3)C(C)(C)CC[N+]=5CCC4)CCC2
photoluminescence quantum yield (in ClC(Cl)Cl): 0.55

SMILES: COc1ccc(C2=Nc3sc(-c4ccccc4)n[n+]3[B-](F)(F)O2)cc1
photoluminescence quantum yield (in Cc1ccccc1): 0.29

SMILES: COc1ccc2c(c1)sc1[n+]2[B-](F)(F)OC(c2ccc(N(C)C)cc2)=N1
photoluminescence quantum yield (in C1CCOC1): 0.8 | photoluminescence quantum yield (in CC#N): 0.38 | photoluminescence quantum yield (in CC(C)=O): 0.56 | photoluminescence quantum yield (in Cc1ccccc1): 0.88 | photoluminescence quantum yield (in ClCCl): 0.83

SMILES: c1ccc2cc(-c3c4ccccc4c(-c4ccc(-c5ccc(-n6c7ccccc7c7ccccc76)cc5)cc4)c4ccccc34)ccc2c1
photoluminescence quantum yield (in ClCCl): 0.7

SMILES: CC(C)(C)c1cc2c(c(C(C)(C)C)c1)O[B-]1(c3ccc([B-]45OC(c6ccccc6)=N[N+]4=Cc4cc(C(C)(C)C)cc(C(C)(C)C)c4O5)cc3)OC(c3ccccc3)=N[N+]1=C2 (stereo not given)
photoluminescence quantum yield (in C1CCOC1): 0.001

SMILES: C(=C\c1ccc(N(c2ccccc2)c2ccccc2)cc1)/c1ccc(/C=C/c2ccc(N(c3ccccc3)c3ccccc3)cc2)cc1
photoluminescence quantum yield (in Cc1ccccc1): 0.82

SMILES: COC(=O)c1cc(=O)n(C)c2cc(-c3ccccc3N(C)C)sc12
photoluminescence quantum yield (in ClCCl): 0.17

SMILES: O=c1oc2ccc(Br)cc2cc1-c1cc2cc(Br)ccc2o1
photoluminescence quantum yield (in CS(C)=O): 0.2

SMILES: Cc1nnc(-c2ccc(-n3c4ccccc4c4ccccc43)cc2)o1
photoluminescence quantum yield (in Cc1ccccc1): 0.55

SMILES: CC1(C)c2ccccc2N(c2ccc(-c3nc(-c4ccccn4)n(-c4ccc(N5c6ccccc6C(C)(C)c6ccccc65)cc4)n3)cc2)c2ccccc21
photoluminescence quantum yield (in ClCCl): 0.0876
